Source: PMC9537541, “Synthesis and anticancer activity of new benzensulfonamides incorporating s-triazines as cyclic linkers for inhibition of carbonic anhydrase IX” (Scientific Reports, 2022)
Where a name gives a salt, the structure may show the parent alone.

What was measured:
[1] = system: CNS cancer (SNB-75); test: NCI single dose SRB screen, SNB-75; format: cell-based; details: Homo sapiens, SNB-75, 48 h, 10^−5 M single dose, read-out: GI% CNS cancer (SNB-75)
Protocol: (§1) Target compounds in series (A) and (B), were submitted to the National Cancer Institute (NCI) Developmental Therapeutic Program (www.dtp.nci.nih.gov), where they have been assessed, in vitro for their anticancer activity. Two series (A) and (B), were screened in a single dose (10 µM) versus full panel composed of 60 cancer cell lines, in accordance with protocol of drug evaluation branch, NCI, Bethesda. Sulforhodamine B (SRB) colorimetric assay was used to determine cell growth and viability,[40].
(§2) Protocol of Drug Evaluation Branch, NCI, Bethesda, was adopted in the antitumor assay. Assessment of cell growth and viability was carried out utilizing SRB assay and 48 h drug exposure protocol as previously reported,[40].

[2] = system: Leukemia (SR); test: NCI single dose SRB screen, SR; format: cell-based; details: 48 h, 10^−5 M single dose, read-out: GI% Leukemia (SR)
Protocol: as §1, §2

[3] = molecular target: T1, hCA II (Homo sapiens, UniProt P00918); test: stopped-flow CO2 hydrase assay, hCA II; format: biochemical; details: stopped flow technique, mean from 3 different assays
T1 construct: made in house
Protocol: (§3) Target compounds of series (A) and (B) were screened as inhibitors concerning the physiologically relevant hCAs; cytosolic isoforms (hCA I and II) in addition to the transmembrane tumor related isoforms (hCA IX and XII) via a stopped-flow assay of carbonic anhydrase catalyzed CO2 hydration. Acetazolamide (AAZ), CA I drug, was also incorporated in the assays as a standard drug. […] Four CA isoforms inhibition activity was measured by assaying CA catalyzed CO2 hydration via an applied photophysics stopped-flow instrument. PRISM 3 and the Cheng-prusoff equation were used to determine the inhibition constant by non-linear least square methods as reported, and represent the mean from three different determination at least. All tested carbonic anhydrase isoforms were recombinant proteins prepared in lab as described earlier,[57].

[4] = system: Renal cancer (UO-31); test: NCI single dose SRB screen, UO-31; format: cell-based; details: Homo sapiens, UO-31, 48 h, 10^−5 M single dose, read-out: GI% Renal cancer (UO-31)
Protocol: as §1, §2

[5] = molecular target: T2, hCA XII (Homo sapiens, UniProt O43570); test: stopped-flow CO2 hydrase assay, hCA XII; format: biochemical; details: for Selectivity index (SI) I/XII: hCA XII over off-target hCA I; for Selectivity index (SI) II/XII: hCA XII over off-target hCA II; for Ki: stopped flow technique, mean from 3 different assays
T2 construct: made in house
Protocol: as §3

[6] = system: Breast cancer (MDA-MB-468); test: NCI single dose SRB screen, MDA-MB-468; format: cell-based; details: Homo sapiens, MDA-MB-468, 48 h, 10^−5 M single dose, 48 h, SRB; read-out: GI% Breast cancer (MDA-MB-468)
Protocol: as §1, §2

[7] = molecular target: T3, hCA I (Homo sapiens, UniProt P00915); test: stopped-flow CO2 hydrase assay, hCA I; format: biochemical; details: stopped flow technique, mean from 3 different assays
T3 construct: made in house
Protocol: as §3

[8] = molecular target: T4, hCA IX (Homo sapiens, UniProt Q16790); test: stopped-flow CO2 hydrase assay, hCA IX; format: biochemical; details: for Selectivity index (SI) I/IX: hCA IX over off-target hCA I; for Selectivity index (SI) II/IX: hCA IX over off-target hCA II; for Ki: stopped flow technique, mean from 3 different assays
T4 construct: made in house
Protocol: as §3

T3 sequence (P00915 whole entry): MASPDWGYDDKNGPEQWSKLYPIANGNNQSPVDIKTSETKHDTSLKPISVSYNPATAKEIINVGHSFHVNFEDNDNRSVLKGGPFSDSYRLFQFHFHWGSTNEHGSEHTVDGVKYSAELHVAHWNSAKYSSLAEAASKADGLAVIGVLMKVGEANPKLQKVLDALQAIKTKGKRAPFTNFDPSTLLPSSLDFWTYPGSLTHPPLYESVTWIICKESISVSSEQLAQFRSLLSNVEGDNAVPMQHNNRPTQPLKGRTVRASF
T2 sequence (O43570 25-354): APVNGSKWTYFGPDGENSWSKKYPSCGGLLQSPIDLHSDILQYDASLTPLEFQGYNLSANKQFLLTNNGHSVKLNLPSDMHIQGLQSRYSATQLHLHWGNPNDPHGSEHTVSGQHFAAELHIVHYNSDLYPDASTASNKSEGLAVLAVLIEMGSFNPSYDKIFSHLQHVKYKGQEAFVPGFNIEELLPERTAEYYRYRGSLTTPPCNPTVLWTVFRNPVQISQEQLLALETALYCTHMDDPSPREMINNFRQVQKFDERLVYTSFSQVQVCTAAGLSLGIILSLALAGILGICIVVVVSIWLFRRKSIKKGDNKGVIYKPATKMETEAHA

SMILES	melting point [°C]	inhibition at 10 µM [1] [%]	inhibition at 10 µM [2] [%]	Ki [3] [µM]	inhibition at 10 µM [4] [%]	Selectivity index (SI) I/XII [5]	Selectivity index (SI) II/XII [5]	Ki [5] [µM]	inhibition at 10 µM [6] [%]	Ki [7] [µM]	Selectivity index (SI) I/IX [8]	Selectivity index (SI) II/IX [8]	Ki [8] [µM]
CC1(C)N=C(N)N=C(N)N1c1ccc(S(=O)(=O)Nc2nccs2)cc1 (as salt: HCl) [Compound 5c, 4-(4,6-Diamino-2,2-dimethyl-1,2-dihydro-1,3,5-triazin-1-yl)-N-(thiazol-2-yl)benzene-1-sulfonamide.HCl]	216 to 218												
NC1=NC2(CCCC2)N(c2ccc(S(N)(=O)=O)cc2)C(N)=N1 (as salt: HCl) [Compound 6a, 4-(7,9-Diamino-6,8,10-triazaspiro[4.5]deca-7,9-dien-6-yl) benzene-1-sulfonamide HCl]	240 to 241												
NC1=NC2(CCCCC2)N(c2ccc(S(N)(=O)=O)cc2)C(N)=N1 (as salt: HCl) [Compound 6b, 4-(2,4-Diamino-1,3,5-triazaspiro[5.5]undeca-2,4-dien-1-yl)benzene-1-sulfonamide.HCl]	257 to 259												
CC1CCC2(CC1)N=C(N)N=C(N)N2c1ccc(S(N)(=O)=O)cc1 (centres unmarked) (as salt: HCl) [Compound 6c, 4-(2,4-Diamino-9-methyl-1,3,5-triazaspiro[5.5]undeca-2,4-dien-1-yl)benzene-1-sulfonamide.HCl]	245 to 247												
NC1=NC2(CCCC2)N(c2ccc(S(=O)(=O)Nc3ccccn3)cc2)C(N)=N1 (as salt: HCl) [Compound 6d, 4-(7,9-Diamino-6,8,10-triazaspiro[4.5]deca-7,9-dien-6-yl}-N-(pyridin-2-yl)benzene-1-sulfonamide.HCl]	221 to 223												
NC1=NC2(CCCCC2)N(c2ccc(S(=O)(=O)Nc3ccccn3)cc2)C(N)=N1 (as salt: HCl) [Compound 6e, 4-(2,4-Diamino-1,3,5-triazaspiro[5.5]undeca-2,4-dien-1-yl)-N-(pyridin-2-yl)benzene-1-sulfonamide.HCl]	246 to 248												
CC1CCC2(CC1)N=C(N)N=C(N)N2c1ccc(S(=O)(=O)Nc2ccccn2)cc1 (centres unmarked) (as salt: HCl) [Compound 6f., 4-(2,4-Diamino-9-methyl-1,3,5-triazaspiro[5.5]undeca-2,4-dien-1-yl)-N-(pyridin-2-yl)benzene-1-sulfonamide.HCl]	217 to 219												
CC1(C)N=C(N)N=C(N)N1c1ccc(S(N)(=O)=O)cc1 [Compound 5a, 4-(4,6-Diamino-1-phenyl-1,2-dihydro-2,2-dimethyl-1,3,5-triazin-1-yl) benzene-1-sulfonamide HCl]		29	≤ 10	0.913	≤ 10	0.3	0.2	3.52	≤ 10	0.884	6.7	6.8	0.135
CC1(C)N=C(N)N=C(N)N1c1ccc(S(=O)(=O)Nc2nccs2)cc1 [Compound 5c, 4-(4,6-Diamino-2,2-dimethyl-1,2-dihydro-1,3,5-triazin-1-yl)-N-(thiazol-2-yl)benzene-1-sulfonamide.HCl]		35	≤ 10	> 10	11			> 10	≤ 10	> 10			> 10
NC1=NC2(CCCC2)N(c2ccc(S(N)(=O)=O)cc2)C(N)=N1 [Compound 6a, 4-(7,9-Diamino-6,8,10-triazaspiro[4.5]deca-7,9-dien-6-yl) benzene-1-sulfonamide HCl]		≤ 10	13	0.832	19	0.1	0.2	5.34	18	0.628	0.6	0.8	1.06
NC1=NC2(CCCCC2)N(c2ccc(S(N)(=O)=O)cc2)C(N)=N1 [Compound 6b, 4-(2,4-Diamino-1,3,5-triazaspiro[5.5]undeca-2,4-dien-1-yl)benzene-1-sulfonamide.HCl]		28	≤ 10	0.915	≤ 10	0.1	0.2	4.85	≤ 10	0.437	0.4	0.8	1.16
CC1CCC2(CC1)N=C(N)N=C(N)N2c1ccc(S(N)(=O)=O)cc1 (centres unmarked) [Compound 6c, 4-(2,4-Diamino-9-methyl-1,3,5-triazaspiro[5.5]undeca-2,4-dien-1-yl)benzene-1-sulfonamide.HCl]		21	≤ 10	0.179	16	0.02	0.04	4.91	≤ 10	0.145	0.1	0.1	1.85
NC1=NC2(CCCC2)N(c2ccc(S(=O)(=O)Nc3ccccn3)cc2)C(N)=N1 [Compound 6d, 4-(7,9-Diamino-6,8,10-triazaspiro[4.5]deca-7,9-dien-6-yl}-N-(pyridin-2-yl)benzene-1-sulfonamide.HCl]		30	≤ 10	> 10	12			> 10	≤ 10	> 10			> 10
NC1=NC2(CCCCC2)N(c2ccc(S(=O)(=O)Nc3ccccn3)cc2)C(N)=N1 [Compound 6e, 4-(2,4-Diamino-1,3,5-triazaspiro[5.5]undeca-2,4-dien-1-yl)-N-(pyridin-2-yl)benzene-1-sulfonamide.HCl]		≤ 10	≤ 10	> 10	11			> 10	≤ 10	> 10			> 10
CC1CCC2(CC1)N=C(N)N=C(N)N2c1ccc(S(=O)(=O)Nc2ccccn2)cc1 (centres unmarked) [Compound 6f., 4-(2,4-Diamino-9-methyl-1,3,5-triazaspiro[5.5]undeca-2,4-dien-1-yl)-N-(pyridin-2-yl)benzene-1-sulfonamide.HCl]		23	≤ 10	> 10	11			> 10	≤ 10	> 10			> 10
NC1=NC2(CCCCCC2)N(c2ccc(S(=O)(=O)Nc3ccccn3)cc2)C(N)=N1 [Compound 6g, 4-(2,4-Diamino-1,3,5-triazaspiro[5.6]dodeca-2,4-dien-1-yl)-N-(pyridin-2-yl)benzene-1-sulfonamide.HCl]		33	≤ 10	> 10	14			> 10	≤ 10	> 10			> 10
NC1=NC2(CCCC2)N(c2ccc(S(=O)(=O)Nc3nccs3)cc2)C(N)=N1 [Compound 6h, 4-{7,9-Diamino-6,8,10-triazaspiro[4.5]deca-7,9-dien-6-yl}-N-(1,3-thiazol-2-yl)benzene-1-sulfonamide.HCl]		≤ 10	≤ 10	> 10	17			> 10	≤ 10	> 10			> 10
NC1=NC2(CCCCC2)N(c2ccc(S(=O)(=O)Nc3nccs3)cc2)C(N)=N1 [Compound 6i, 4-(2,4-Diamino-1,3,5-triazaspiro[5.5]undeca-2,4-dien-1-yl)-N-(1,3-thiazol-2-yl)benzene-1-sulfonamide.HCl]		≤ 10	≤ 10	> 10	14			> 10	≤ 10	> 10			> 10
CC1CCC2(CC1)N=C(N)N=C(N)N2c1ccc(S(=O)(=O)Nc2nccs2)cc1 (centres unmarked) [Compound 6j, 4-(2,4-Diamino-9-methyl-1,3,5-triazaspiro[5.5]undeca-2,4-dien-1-yl)-N-(1,3-thiazol-2-yl)benzene-1-sulfonamide.HCl]		29	≤ 10	> 10	17			> 10	≤ 10	> 10			> 10
